Measurements from patent US11986532B2 (Arvinas Operations, Inc., priority 2021, dated 2024).

Target: T1, BCL6 (Homo sapiens, UniProt P41182)
T1 construct: endogenous in cells; host or cells: T47D breast cancer epithelial cells
Experiment: Immunofluorescence protocol for high content imaging of BCL6 (degradation) in T47D cells, 3 days compound treatment
Format: cell-based
Settings: for Dmax: T47D, read-out: Mean Dmax (%)** category; for DC50: read-out: Mean DC50 (nM)* category
Procedure, shortened: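 Read-out: high-content imaging of anti-BCL6 immunofluorescence (Alexa-488 secondary) with CellMask and Hoechst counterstains, 10×, 4 fields/well. Cells had 3 days of compound exposure at 37° C, 5% CO2, 11-point 3-fold series from a final top of 0.1 or 1 μM.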

With `CNC(=O)COc1cc2cc(Nc3nc(N4CCN(CC5CCC6(CC5)CN(c5ccc7c(c5OC)CN(C5CCC(=O)NC5=O)C7=O)C6)CC4)ncc3Cl)ccc2n(C(C)C)c1=O` (stereo not shown) [Compound 331, 2-{[6-({5-chloro-2-[4-({2-[2-(2,6-dioxopiperidin-3-yl)-4-methoxy-1-oxo-2,3-dihydro-1H-isoindol-5-yl]-2-azaspiro[3.5]nonan-7-yl}methyl)piperazin-1-yl]pyrimidin-4-yl}amino)-2-oxo-1-(propan-2-yl)-1,2-dihydroquinolin-3-yl]oxy}-N-methylacetamide] as the compound, how does the Dmax read?
Its Dmax is 50 to 70%.

And the DC50?
The DC50 was 10 to 50 nM.

For `CNC(=O)COc1cc2cc(Nc3nc(N4CCC(CN5CCC6(CN(c7ccc8c(c7F)CN(C7CCC(=O)NC7=O)C8=O)C6)C(F)(F)C5)CC4)ncc3Cl)ccc2n(C(C)C)c1=O` (stereo not shown) [Compound 332, 2-{[6-({5-chloro-2-[4-({2-[2-(2,6-dioxopiperidin-3-yl)-4-fluoro-1-oxo-2,3-dihydro-1H-isoindol-5-yl]-5,5-difluoro-2,7-diazaspiro[3.5]nonan-7-yl}methyl)piperidin-1-yl]pyrimidin-4-yl}amino)-2-oxo-1-(propan-2-yl)-1,2-dihydroquinolin-3-yl]oxy}-N-methylacetamide], which Dmax is on record?
Its Dmax is ≥ 70%.

And the DC50?
Its DC50 is < 10 nM.

With `CNC(=O)COc1cc2cc(Nc3nc(N4CCC(CN5CCC6(CC5)CCN6c5cccc6c5C(=O)N(C5CCC(=O)NC5=O)C6=O)CC4)ncc3Cl)ccc2n(C(C)C)c1=O` (stereo not shown) [Compound 333, 2-{[6-({5-chloro-2-[4-({1-[2-(2,6-dioxopiperidin-3-yl)-1,3-dioxo-2,3-dihydro-1H-isoindol-4-yl]-1,7-diazaspiro[3.5]nonan-7-yl}methyl)piperidin-1-yl]pyrimidin-4-yl}amino)-2-oxo-1-(propan-2-yl)-1,2-dihydroquinolin-3-yl]oxy}-N-methylacetamide] as the compound, how does the Dmax read?
Its Dmax is ≥ 70%.

What about the DC50 of the same compound?
The DC50 was < 10 nM.

What does the source list for `CNC(=O)COc1cc2cc(Nc3nc(N4CCC(CN5CCC6(CC5)CCN6c5cccc6c5CN(C5CCC(=O)NC5=O)C6=O)CC4)ncc3Cl)ccc2n(C(C)C)c1=O` (stereo not shown) [Compound 334, 2-{[6-({5-chloro-2-[4-({1-[2-(2,6-dioxopiperidin-3-yl)-1-oxo-2,3-dihydro-1H-isoindol-4-yl]-1,7-diazaspiro[3.5]nonan-7-yl}methyl)piperidin-1-yl]pyrimidin-4-yl}amino)-2-oxo-1-(propan-2-yl)-1,2-dihydroquinolin-3-yl]oxy}-N-methylacetamide]?
Dmax: 50 to 70%; DC50: < 10 nM

Which results are given for `CNC(=O)COc1cc2cc(Nc3nc(N4CCC(CN5CCC6(CC5)CCN6c5ccc6c(c5)C(=O)N(C5CCC(=O)NC5=O)C6=O)CC4)ncc3Cl)ccc2n(C(C)C)c1=O` (stereo not shown) [Compound 335, 2-{[6-({5-chloro-2-[4-({1-[2-(2,6-dioxopiperidin-3-yl)-1,3-dioxo-2,3-dihydro-1H-isoindol-5-yl]-1,7-diazaspiro[3.5]nonan-7-yl}methyl)piperidin-1-yl]pyrimidin-4-yl}amino)-2-oxo-1-(propan-2-yl)-1,2-dihydroquinolin-3-yl]oxy}-N-methylacetamide]?
Dmax: ≥ 70%; DC50: < 10 nM

`CNC(=O)COc1cc2cc(Nc3nc(N4CCC(CN5CCC6(CC5)CCN6c5ccc6c(c5)CN(C5CCC(=O)NC5=O)C6=O)CC4)ncc3Cl)ccc2n(C(C)C)c1=O` (stereo not shown) [Compound 336, 2-{[6-({5-chloro-2-[4-({1-[2-(2,6-dioxopiperidin-3-yl)-1-oxo-2,3-dihydro-1H-isoindol-5-yl]-1,7-diazaspiro[3.5]nonan-7-yl}methyl)piperidin-1-yl]pyrimidin-4-yl}amino)-2-oxo-1-(propan-2-yl)-1,2-dihydroquinolin-3-yl]oxy}-N-methylacetamide] was tested. Which Dmax did it give?
Its Dmax is ≥ 70%.

What about the DC50 of the same compound?
The DC50 was < 10 nM.

What does the source list for `CNC(=O)COc1cc2cc(Nc3nc(N4CCC(CN5CCC6(CC5)CN(c5cccc7c5C(=O)N(C5CCC(=O)NC5=O)C7=O)C6(C)C)CC4)ncc3Cl)ccc2n(C(C)C)c1=O` (stereo not shown) [Compound 337, 2-{[6-({5-chloro-2-[4-({2-[2-(2,6-dioxopiperidin-3-yl)-1,3-dioxo-2,3-dihydro-1H-isoindol-4-yl]-1,1-dimethyl-2,7-diazaspiro[3.5]nonan-7-yl}methyl)piperidin-1-yl]pyrimidin-4-yl}amino)-2-oxo-1-(propan-2-yl)-1,2-dihydroquinolin-3-yl]oxy}-N-methylacetamide]?
Dmax: 50 to 70%; DC50: < 10 nM

For `CNC(=O)COc1cc2cc(Nc3nc(N4CCC(O[C@H]5C[C@H](N6CCC7(CN(c8ccc9c(c8)C(=O)N(C8CCC(=O)NC8=O)C9=O)C7)C6)C5)CC4)ncc3Cl)ccc2n(C(C)C)c1=O` (stereo partly shown) [Compound 338, 2-({6-[(5-chloro-2-{4-[(1r,3r)-3-{2-[2-(2,6-dioxopiperidin-3-yl)-1,3-dioxo-2,3-dihydro-1H-isoindol-5-yl]-2,6-diazaspiro[3.4]octan-6-yl}cyclobutoxy]piperidin-1-yl}pyrimidin-4-yl)amino]-2-oxo-1-(propan-2-yl)-1,2-dihydroquinolin-3-yl}oxy)-N-methylacetamide], which Dmax is on record?
The Dmax was ≥ 70%.

What about the DC50 of the same compound?
The DC50 was 10 to 50 nM.

What does the source list for `CNC(=O)COc1cc2cc(Nc3nc(N4CCC(O[C@H]5C[C@H](N6CCC7(CCN(c8ccc9c(c8)C(=O)N(C8CCC(=O)NC8=O)C9=O)C7)C6)C5)CC4)ncc3Cl)ccc2n(C(C)C)c1=O` (stereo partly shown) [Compound 339, 2-({6-[(5-chloro-2-{4-[(1r,3r)-3-{7-[2-(2,6-dioxopiperidin-3-yl)-1,3-dioxo-2,3-dihydro-1H-isoindol-5-yl]-2,7-diazaspiro[4.4]nonan-2-yl}cyclobutoxy]piperidin-1-yl}pyrimidin-4-yl)amino]-2-oxo-1-(propan-2-yl)-1,2-dihydroquinolin-3-yl}oxy)-N-methylacetamide]?
Dmax: 50 to 70%; DC50: < 10 nM

Which DC50 does the source give for `CNC(=O)COc1cc2cc(Nc3nc(N4CCC(CN5CCC6(CC5)CN(c5ccc7c(c5OC)CN(C5CCC(=O)NC5=O)C7=O)C6(C)C)CC4)ncc3Cl)ccc2n(C(C)C)c1=O` (stereo not shown) [Compound 340, 2-{[6-({5-chloro-2-[4-({2-[2-(2,6-dioxopiperidin-3-yl)-4-methoxy-1-oxo-2,3-dihydro-1H-isoindol-5-yl]-1,1-dimethyl-2,7-diazaspiro [3.5]nonan-7-yl}methyl)piperidin-1-yl]pyrimidin-4-yl}amino)-2-oxo-1-(propan-2-yl)-1,2-dihydroquinolin-3-yl]oxy}-N-methylacetamide] here?
Its DC50 is 10 to 50 nM.

Which results are given for `CNC(=O)COc1cc2cc(Nc3nc(N4CCC(OC5CN([C@H]6CC[C@H](c7ccc8c(c7)C(=O)N(C7CCC(=O)NC7=O)C8=O)CC6)C5)CC4)ncc3Cl)ccc2n(C(C)C)c1=O` (stereo partly shown) [Compound 341, 2-{[6-({5-chloro-2-[4-({1-[(1r,4r)-4-[2-(2,6-dioxopiperidin-3-yl)-1,3-dioxo-2,3-dihydro-1H-isoindol-5-yl]cyclohexyl]azetidin-3-yl}oxy)piperidin-1-yl]pyrimidin-4-yl}amino)-2-oxo-1-(propan-2-yl)-1,2-dihydroquinolin-3-yl]oxy}-N-methylacetamide]?
Dmax: 50 to 70%; DC50: 10 to 50 nM

With `CNC(=O)COc1cc2cc(Nc3nc(N4CCN(C[C@H]5C[C@H](N6CCN(c7ccc8c(c7)CN(C7CCC(=O)NC7=O)C8=O)CC6)C5)CC4)ncc3Cl)ccc2n(C(C)C)c1=O` (stereo partly shown) [Compound 342, 2-[(6-{[5-chloro-2-(4-{[(1r,3r)-3-{4-[2-(2,6-dioxopiperidin-3-yl)-1-oxo-2,3-dihydro-1H-isoindol-5-yl]piperazin-1-yl}cyclobutyl]methyl}piperazin-1-yl)pyrimidin-4-yl]amino}-2-oxo-1-(propan-2-yl)-1,2-dihydroquinolin-3-yl)oxy]-N-methylacetamide] as the compound, how does the Dmax read?
Its Dmax is ≥ 70%.

What about the DC50 of the same compound?
Its DC50 is < 10 nM.

Which results are given for `CNC(=O)COc1cc2cc(Nc3nc(N4CCC(O[C@H]5C[C@H](N6CCC7(CCN(c8ccc9c(c8)C(=O)N(C8CCC(=O)NC8=O)C9=O)CC7)CC6)C5)CC4)ncc3Cl)ccc2n(C(C)C)c1=O` (stereo partly shown) [Compound 343, 2-({6-[(5-chloro-2-{4-[(1r,3r)-3-{9-[2-(2,6-dioxopiperidin-3-yl)-1,3-dioxo-2,3-dihydro-1H-isoindol-5-yl]-3,9-diazaspiro [5.5]undecan-3-yl}cyclobutoxy]piperidin-1-yl}pyrimidin-4-yl)amino]-2-oxo-1-(propan-2-yl)-1,2-dihydroquinolin-3-yl}oxy)-N-methylacetamide]?
Dmax: 50 to 70%; DC50: < 10 nM

For `CNC(=O)COc1cc2cc(Nc3nc(N4CCC(O[C@H]5C[C@H](N6CCC7(CN(c8ccc9c(c8)CN(C8CCC(=O)NC8=O)C9=O)C7)C6)C5)CC4)ncc3Cl)ccc2n(C(C)C)c1=O` (stereo partly shown) [Compound 344, 2-({6-[(5-chloro-2-{4-[(1r,3r)-3-{2-[2-(2,6-dioxopiperidin-3-yl)-1-oxo-2,3-dihydro-1H-isoindol-5-yl]-2,6-diazaspiro [3.4]octan-6-yl}cyclobutoxy]piperidin-1-yl}pyrimidin-4-yl)amino]-2-oxo-1-(propan-2-yl)-1,2-dihydroquinolin-3-yl}oxy)-N-methylacetamide], which Dmax is on record?
The Dmax was < 50%.

And the DC50?
The DC50 was < 10 nM.

With `CNC(=O)COc1cc2cc(Nc3nc(N4CCC(O[C@H]5C[C@H](N6CCC7(CN(c8ccc9c(c8)C(=O)N(C8CCC(=O)NC8=O)C9)C7)C6)C5)CC4)ncc3Cl)ccc2n(C(C)C)c1=O` (stereo partly shown) [Compound 345, 2-({6-[(5-chloro-2-{4-[(1r,3r)-3-{2-[2-(2,6-dioxopiperidin-3-yl)-3-oxo-2,3-dihydro-1H-isoindol-5-yl]-2,6-diazaspiro [3.4]octan-6-yl}cyclobutoxy]piperidin-1-yl}pyrimidin-4-yl)amino]-2-oxo-1-(propan-2-yl)-1,2-dihydroquinolin-3-yl}oxy)-N-methylacetamide] as the compound, how does the Dmax read?
Its Dmax is ≥ 70%.

And the DC50?
Its DC50 is < 10 nM.

With `CNC(=O)COc1cc2cc(Nc3nc(N4CCC(O[C@H]5C[C@H](N6CCC7(CCN(c8ccc9c(c8)CN(C8CCC(=O)NC8=O)C9=O)C7)C6)C5)CC4)ncc3Cl)ccc2n(C(C)C)c1=O` (stereo partly shown) [Compound 346, 2-({6-[(5-chloro-2-{4-[(1r,3r)-3-{7-[2-(2,6-dioxopiperidin-3-yl)-1-oxo-2,3-dihydro-1H-isoindol-5-yl]-2,7-diazaspiro [4.4]nonan-2-yl}cyclobutoxy]piperidin-1-yl}pyrimidin-4-yl)amino]-2-oxo-1-(propan-2-yl)-1,2-dihydroquinolin-3-yl}oxy)-N-methylacetamide] as the compound, how does the Dmax read?
Its Dmax is ≥ 70%.

What about the DC50 of the same compound?
Its DC50 is < 10 nM.
